Measured values as given in patent US8624079B2, “Knockin mouse with a disruption in a PXR gene expressing human PXR” (ITI Scotland Limited, priority 2007, dated 2014).
“And” between values parts separate entries of the source, which are not always exact repeats. Equal entries are not always repeated.

Key:
Cyp3a11 [1] = experiment: Midazolam metabolism in koCyp3a11 mice; settings: male koCyp3a11 mice compared to male wild type mice
Text: The also inventors studied the pharmacokinetics of midazolam (MDZ; metabolisation to form 1-hydroxymidazolam) in male koCyp3a11 mice, in comparison to male wild type mice.

Cyp3a = experiment: 7-benzyloxyquinoline (BQ) activity assay in liver microsomes of treated mice; settings: PB 80 mg/kg ip daily for 4 days
Description: PXR activity was determined by measuring the metabolism of a number of cytochrome P450 substrates which are metabolised to different extents by different cytochrome P450 enzymes. The following assays were performed: • 7-benzyloxyquinoline (BQ) activity was determined in liver microsomes. • Testosterone hydroxylase activity was determined in liver microsomes (LMS HPLC-006). • The specific activities of these reactions was expressed per mg protein as determined using the Lowry assay (LMS Spec-0001).

[2] = Liver/body weight ratios (hepatomegaly); assay type: in vivo, mouse; settings: PB 80 mg/kg ip daily for 4 days; for Body weight (g) - Day 5 / Liver weight / Liver/Body weight Ratio: Mean ± SD; for hepatomegaly: WT and huPXR/huCAR mice
Text: Post operation all animals had no abnormalities detected.

[3] = wild-type, koPXR or koCAR mice; 40 mg/kg
Description: For the same animals, plasma levels of alanine aminotransferase (ALT), alkaline phosphatase (ALP) and aspartate aminotransferase (AST) were also measured (see FIG. 40). […] Both compounds were administered at 40 mg/kg.
Plasma levels of alanine aminotransferase (ALT), alkaline phosphatase (ALP) and aspartate aminotransferase (AST) were also measured (see FIG. 46).

liver [4] = experiment: H&E histopathology of liver and small intestine; assay type: in vivo, mouse
Text: Two samples of the liver (one from the lobe, one from the median lobe) and one sample of the small intestine were taken and preserved in 4% neutral buffered formaldehyde (NBF). The preserved liver samples of all mice of all groups were trimmed, processed and embedded in paraffin. The paraffin-embedded samples were sent to Progenix, Inverkeithing, UK where they were sectioned at a nominal thickness of about 5 áem and then stained with haematoxylin and eosin (H&E). One section of each organ sample was examined by Dr. Ortwin Vogel, Consultant Pathologist, Kiel, Germany. Subsequent to his histopatholoical analysis of all H&E stained mouse livers and small intestines, Dr. Vogel reported the following finding;

Cyp2b10 [5] = experiment: pentoxyresorufin-O-deethylation (PROD) and BROD activity assay in liver microsomes of treated mice; settings: for BROD and PROD activities (Cyp2b10 / P450 induction): WT and huPXR/huCAR mice
Cyp2b10 [6] = experiment: Cyp2b10 protein expression of treated mice by SDS-PAGE and Western blotting; settings: for Cyp2b10 protein in pooled liver microsomes (Western blot): PB 80 mg/kg ip daily for 4 days
Description: (§1) Dosing solutions were prepared on the day of administration by adding corn oil to the requisite quantity of test substance and stirring to obtain a solution or fine suspension. The concentration of PCN was 10 mg/ml and Rif 2.5 mg/ml of supplied chemical, without any correction for purity. Records of preparation were retained.
Control animals were administered vehicle (corn oil) daily by intraperitoneal injection. The volume of vehicle and solutions of inducing agents administered was 10 ml/kg bodyweight. This route of administration was chosen for consistency with previously published work. […]
(§2) Quantification of Cyp3a11, Cyp2b10 and PXR protein in liver microsomes of all mice samples was carried out by SDS-PAGE and Western blotting. To detect murine and human PXR protein, an antibody (RF8) was employed. For the identification of Cyp3a and Cyp2b, […] were used, (CH32 and CH4, respectively).

liver cells = experiment: BrdU incorporation in liver (hepatic cell proliferation, S-phase labelling index); assay type: in vivo, mouse; settings: for % BrDu Positive Cells, % mean (of own control) / % BrDu Positive Cells, Mean / % BrDu Positive Cells (individual mouse): liver; for cell proliferation (BrdU positive cells): huPXR/huCAR or PXRKO/CARKO mice
Cyp3a11 and Cyp2b10 = experiment: Comparative induction study in PXR/CAR humanised and knockout panel (Cyp3a11, Cyp2b10 protein, BQ and PROD activity); settings: mice in which CAR had been knocked out; 40 mg/kg
Text: The effects of phenobarbital on Cyp3a11 and Cyp2b10 induction were compared in wild type, huPXR, koPXR, huCAR, koCAR, huPXR/huCAR, koPXR/koCAR huPXR/koCAR and koPXR/huCAR mice (see FIG. 87).

liver [7] = experiment: TUNEL labelling assay (hepatic in situ cell death); assay type: in vivo, mouse; settings: WT, huPXR/huCAR and PXRKO/CARKO mice; PB 80 mg/kg ip daily for 4 days
Text: However, no such consistency has been observed in mice. An indirect TUNEL labelling assay was used to analyse hepatic in situ death (FIG. 128/Table 4). The present study has shown a marker variation in apoptotic indices in mouse liver. Thus, small (e.g. 50%) compound-induced decreases, upon a low background, were not readily demonstrable.

Cyp1a1/1a2 and Cyp1b1 = experiment: MROD and EROD activity in liver microsomes of treated mice; settings: PB 80 mg/kg ip daily for 4 days
Text: EROD activity is indicative of Cyp1a1/1a2 and Cyp1b1 in the mouse, whereas MROD is a substrate for Cyp1a2. However, other isoforms may be contributing to the measured activities. The results from the two enzyme assays are in reasonably good agreement with each other (FIG. 130a-b) As the Cyp1a2 gene is constitutively expressed, this may explain the basal levels of activity observed in both activity assays.

Cyp3a11 [8] = experiment: Cyp3a11 protein expression in liver microsomes of treated mice by SDS-PAGE and Western blotting; settings: mouse, in vivo, 40 mg/kg
Description: as §1
The volume of vehicle and solutions of inducing agents administered was 10 ml/kg bodyweight. This route of administration was chosen for consistency with previously published work. […]
as §2

[9] = wild type mice; rifampicin 10 mg/kg per day for 3 days before midazolam
[10] = PXRKO/CARKO mice, PB 80 mg/kg ip daily for 4 days
[11] = PXRKO/CARKO mice, PB 80 mg/kg ip daily for 4 days, listed as PB
[12] = PB 80 mg/kg ip daily for 4 days
[13] = PB 80 mg/kg ip daily for 4 days, listed as PB
[14] = WT mice, PB 80 mg/kg ip daily for 4 days
[15] = huPXR/huCAR mice, PB 80 mg/kg ip daily for 4 days

Structure (SMILES): Cc1ncc2n1-c1ccc(Cl)cc1C(c1ccccc1F)=NC2 [midazolam]
- 1-hydroxymidazolam formation (Cyp3a11 [1]): significantly reduced

Structure (SMILES): CCC1(c2ccccc2)C(=O)NC(=O)NC1=O [phenobarbital, Phenobarbital]
- Cyp3a11 induction (BQ activity) (Cyp3a; PXRKO/CARKO mice): absence of Cyp3a11 induction
- increase in BQ activity (Cyp3a; WT mice): marginal increase
- increase in BQ activity (Cyp3a; huPXR/huCAR mice): 5 fold
- Body weight - Day 5 (% mean own control ± % SD) ([2]; PXRKO/CARKO mice): (98 ± 8) %
- Liver weight (% mean own control ± % SD) ([2]; PXRKO/CARKO mice): (98 ± 16) %
- Liver/Body weight Ratio (% mean own control ± % SD) ([2]; PXRKO/CARKO mice): (100 ± 9) %
- Body weight (g) - Day 5 ([2]; PXRKO/CARKO mice): 26.6 ± 2.2 g
- Liver weight ([2]; PXRKO/CARKO mice): 1.42 ± 0.23 g
- Liver/Body weight Ratio ([2]; PXRKO/CARKO mice): 5.3 ± 0.4
- hepatomegaly [2]: led to both hepatomegaly and P450 induction
- hepatomegaly ([2]; listed as PB): observed
- Body weight - Day 5 (% mean own control ± % SD) ([2]; WT mice): (84 ± 5) %
- Liver weight (% mean own control ± % SD) ([2]; WT mice): (101 ± 6) %
- Body weight (g) - Day 5 ([2]; WT mice): 23.2 ± 1.3 g
- Liver weight ([2]; WT mice): 1.44 ± 0.09 g
- Liver/Body weight Ratio ([2]; WT mice): 6.2 ± 0.2
- Body weight - Day 5 (% mean own control ± % SD) ([2]; huPXR/huCAR mice): (99 ± 6) %
- Liver weight (% mean own control ± % SD) ([2]; huPXR/huCAR mice): (121 ± 11) %
- Body weight (g) - Day 5 ([2]; huPXR/huCAR mice): 25.4 ± 1.5 g
- Liver weight ([2]; huPXR/huCAR mice): 1.69 ± 0.16 g
- Liver/Body weight Ratio ([2]; huPXR/huCAR mice): 6.7 ± 0.6
- hepatotoxicity (liver/body weight ratio, plasma ALT, ALP, AST) [3]: No hepatotoxicity was detected
- hepatocellular hypertrophy (H&E, microscopic) (liver [4]; [10]): no unequivocal evidence of a hepatocellular hypertrophy
- pathological evidence in liver (pathologist's conclusion) (liver [4]; PXRKO/CARKO strain, PB 80 mg/kg/4days/IP): Evidence of hepatocellular hyperplasia occurred
- pathological evidence in liver (pathologist's conclusion) (liver [4]; WT and huPXR/huCAR strain, PB 80 mg/kg/4days/IP): pathological evidence of a hepatocellular hypertrophy/hyperplasia
- mitotic figures indicating hepatocellular proliferation (H&E) (liver [4]; WT, huPXR/huCAR and PXRKO/CARKO mice, PB 80 mg/kg ip daily for 4 days): noted mainly in PB-treated WT mice
- microscopic findings in the small intestine (liver [4]; all mouse lines, PB 80 mg/kg/4days/IP): No microscopic findings were recorded in the small intestine
- hepatocellular hypertrophy (H&E, microscopic) (liver [4]; huPXR/huCAR and WT mice, PB 80 mg/kg ip daily for 4 days): slight to moderate centrilobular hepatocellular hyperthrophy
- PROD or BROD activities (Cyp2b10 / P450 induction) (Cyp2b10 [5]; [11]): not altered
- BROD and PROD activities (Cyp2b10 / P450 induction) (Cyp2b10 [5]; [12]): led to both hepatomegaly and P450 induction
- BROD and PROD activities (Cyp2b10 / P450 induction) (Cyp2b10 [5]; [13]): marker Cyp2b10 induction was observed, at similar levels
- Cyp2b10 protein in pooled liver microsomes (Western blot) (Cyp2b10 [6]; PXRKO/CARKO mice): not in the PXRKO/CARKO animals
- Cyp2b10 protein in pooled liver microsomes (Western blot) (Cyp2b10 [6]; WT and huPXR/huCAR mice): induced
- Cyp2b10 expression in liver (Western blot) (Cyp2b10 [6]; koCAR mice, 40 mg/kg): significantly reduced
- Cyp2b10 expression (Western blot and PROD activity, liver) (Cyp2b10 [6]; wild-type and huCAR mice, 40 mg/kg): induced Cyp2b10 expression both in the wild-type and in huCAR mice
- % BrDu Positive Cells, % mean (of own control) (liver cells; [10]): 144%
- % BrDu Positive Cells, Mean (liver cells; [10]): 2.83%
- % BrDu Positive Cells (individual mouse) (liver cells; [11]): 2.16% and 1.98% and 1.82% and 2.30% and 3.77% and 5.10% and 3.71% and 1.88% and 3.06% and 2.51%
- increase of hepatocellular labelling index (S-phase) (liver cells; [14]): approximately 5 fold
- % BrDu Positive Cells, % mean (of own control) (liver cells; [14]): 531%
- % BrDu Positive Cells, Mean (liver cells; [14]): 9.30%
- % BrDu Positive Cells (individual mouse) (liver cells; WT mice, PB 80 mg/kg ip daily for 4 days, listed as PB): 9.45% and 5.54% and 16.69% and 6.32% and 9.50% and 8.09% and 7.64% and 13.60%
- % BrDu Positive Cells, % mean (of own control) (liver cells; [15]): 104%
- % BrDu Positive Cells, Mean (liver cells; [15]): 2.00%
- % BrDu Positive Cells (individual mouse) (liver cells; huPXR/huCAR mice, PB 80 mg/kg ip daily for 4 days, listed as PB): 0.37% and 0.-18% and 1.19% and 1.86% and 3.GO and 1.98% and 3.18% and 3.24% and 2.13%
- cell proliferation (BrdU positive cells) (liver cells; [12]): No increase in BrdU positive cells was observed
- cell proliferation (BrdU positive cells) (liver cells; [13]): appeared to have no effect on cell proliferation
- hepatocellular proliferation (% BrdU-positive cells) (liver cells; wild-type mice, phenobarbital vs unexposed control): hepatocellular proliferation only in wild-type mice
- induction of Cyp3a11 and Cyp2b10 protein expression or activity in the BQ and PROD assays (Cyp3a11 and Cyp2b10): Little or no induction
- hepatic apoptotic indices (TUNEL), PB-treated vs control (liver [7]): no statistical significance found
- MROD and EROD enzyme activities (Cyp1a1/1a2 and Cyp1b1; PXRKO/CARKO line): no increase
- MROD and EROD enzyme activities (Cyp1a1/1a2 and Cyp1b1; WT and huPXR/huCAR mice): increased
- Cyp3a11 expression in liver (Western blot) (Cyp3a11 [8]): significantly reduced

Structure (SMILES): CO[C@H]1/C=C/O[C@@]2(C)Oc3c(C)c(O)c4c(O)c(c(/C=N/N5CCN(C)CC5)c(O)c4c3C2=O)NC(=O)/C(C)=C\C=C\[C@H](C)[C@H](O)[C@@H](C)[C@@H](O)[C@@H](C)[C@H](OC(C)=O)[C@@H]1C [rifampicin]
- induction of Cyp2b10 activity (Cyp2b10 [5]; wild-type or huPXR mice, rifampicin): did not induce
- induction of Cyp2b10 expression (Cyp2b10 [6]; mouse, in vivo): did not induce
- induction of Cyp2b10 expression and PROD activity (Cyp2b10 [6]; mouse, in vivo): only in the huPXR.1 mouse, but not in the wild type or in the huPXR mouse
- induction of Cyp2b10 protein (Western blot) (Cyp2b10 [6]; mouse, in vivo, ip): not markedly induced
- effect of rifampicin pre-treatment on midazolam pharmacokinetics [9]: no significant effect was observed
